In assay [1] the target is T1, recombinant human CL receptor/RAMP1 (Homo sapiens, UniProt O60894+Q16602).
T1 construct: expressed in transfected cells; membranes
The assay is described as follows: Recombinant Receptor Binding Assay (125I-hCGRP). Conditions: exemplary compounds of the invention. How it is done:
Recombinant Receptor: Human CL receptor (Genbank accession number L76380) was subcloned into the expression vector pIREShyg2 (BD Biosciences Clontech) as a 5′NheI and 3′ PmeI fragment. Human RAMP 1 (Genbank accession number AJ001014) was subcloned into the expression vector pIRESpuro2 (BD Biosciences Clontech) as a 5′NheI and 3′NotI fragment. HEK 293 cells (human embryonic kidney cells; ATCC #CRL-1573) were cultured in DMEM with 4.5 g/L glucose, 1 mM sodium pyruvate and 2 mM glutamine supplemented with 10% fetal bovine serum (FBS), 100 units/mL penicillin and 100 μg/mL streptomycin, and maintained at 37° C. and 95% humidity. Cells were subcultured by treatment with 0.25% trypsin with 0.1% EDTA in HBSS. Stable cell line generation was accomplished by co-transfecting 10 μg of DNA with 30 μg Lipofectamine 2000 (Invitrogen) in 75 cm^2 flasks. CL receptor and RAMP1 expression constructs were co-transfected in equal amounts. Twenty-four hours after transfection the cells were diluted and selective medium (growth medium+300 μg/mL hygromycin and 1 μg/mL puromycin) was added the following day. A clonal cell line was generated by single cell deposition utilizing a FACS Vantage SE (Becton Dickinson). Growth medium was adjusted to 150 μg/mL hygromycin and 0.5 μg/mL puromycin for cell propagation.
Recombinant Receptor Binding Assay: Cells expressing recombinant human CL receptor/RAMP1 were washed with PBS and harvested in harvest buffer containing 50 mM HEPES, 1 mM EDTA and Complete™ protease inhibitors (Roche). The cell suspension was disrupted with a laboratory homogenizer and centrifuged at 48,000 g to isolate membranes. The pellets were resuspended in harvest buffer plus 250 mM sucrose and stored at −70° C. For binding assays, 20 μg of membranes were incubated in 1 mL binding buffer (10 mM HEPES, pH 7.4, 5 mM MgCl2, and 0.2% BSA) for 3 h at room temperature containing […] ^125I-hCGRP (GE Healthcare) and antagonist. The assay was terminated by filtration through 96-well GFB glass fiber filter plates (PerkinElmer) that had been blocked with 0.05% polyethyleneimine. The filters were washed 3 times with ice-cold assay buffer (10 mM HEPES, pH 7.4, and 5 mM MgCl2). Scintillation fluid was added and the plates were counted on a Topcount (Packard). Non-specific binding was determined and the data analysis was carried out with the apparent dissociation constant (Ki) determined by using a non-linear least squares fitting the bound CPM data to the equation below:
[formula] Where Y is observed CPM bound, Ymax is total bound counts, Ymin is non specific bound counts, (Ymax−Ymin) is specific bound counts, % Imax is the maximum percent inhibition, % I min is the minimum percent inhibition, radiolabel is the probe, and the Kd is the apparent dissociation constant for the radioligand for the receptor as determined by hot saturation experiments.

In assay [2] the test system is headache induced by CGRP infusion. Conditions: control group; cited from earlier work.
In assay [3] the test system is acute attacks of migraine. As to conditions: clinical trials; cited from earlier work.
Assay [4] concerns facial blood flow. Conditions: marmoset, electrical stimulation of the trigeminal ganglion; cited from earlier work.
For assay [5], the system named is facial blood flow. As to conditions: rat, trigeminal ganglion stimulation; cited from earlier work.
For a further assay, the system named is middle meningeal artery. As to conditions: rats, electrical stimulation of the dura mater, prior administration; cited from earlier work.

Structures can show the parent of a compound that is named as a salt. Where no end group is shown, it is not given here.

We go through 13 molecules from patent US8883807B2, “Piperidinone carboxamide indane CGRP receptor antagonists” (Merck Sharp & Dohme Corp., priority 2010, dated 2014).

T1 sequence (Q16602 23-461): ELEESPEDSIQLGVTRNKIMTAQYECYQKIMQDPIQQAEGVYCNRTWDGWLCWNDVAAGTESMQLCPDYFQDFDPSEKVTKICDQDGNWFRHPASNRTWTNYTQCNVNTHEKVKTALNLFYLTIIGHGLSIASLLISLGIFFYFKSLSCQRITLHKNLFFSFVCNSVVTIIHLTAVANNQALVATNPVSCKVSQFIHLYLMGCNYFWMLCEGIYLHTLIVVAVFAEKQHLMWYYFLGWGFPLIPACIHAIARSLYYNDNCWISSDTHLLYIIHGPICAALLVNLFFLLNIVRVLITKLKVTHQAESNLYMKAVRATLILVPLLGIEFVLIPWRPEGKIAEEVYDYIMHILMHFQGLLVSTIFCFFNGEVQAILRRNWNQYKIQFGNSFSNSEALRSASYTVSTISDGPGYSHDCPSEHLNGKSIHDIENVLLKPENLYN
T1 sequence (O60894 27-148): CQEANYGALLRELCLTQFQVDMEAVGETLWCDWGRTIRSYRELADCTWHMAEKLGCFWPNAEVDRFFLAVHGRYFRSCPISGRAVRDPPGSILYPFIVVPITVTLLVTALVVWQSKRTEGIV

For the molecule `C[C@@H]1[C@H](c2cc(F)cc(F)c2F)C[C@H](NC(=O)c2ccc3c(c2)C[C@@]2(C3)C(=O)Nc3ncccc32)C(=O)N1CC(F)(F)F` [Example 3, (2R)-N-1-[(3S,5S,6R)-6-Methyl-2-oxo-1-(2,2,2-trifluoroethyl)-5-(2,3,5-trifluorophenyl)piperidin-3-yl]-2′-oxo-1,1′,2′,3-tetrahydrospiro[indene-2,3′-pyrrolo[2,3-b]pyridine]-5-carboxamide hydrochloride], the inhibition constant Ki in assay [1] was 0.039 nM.
On the same count and under the same terms, the result for `O=C(N[C@H]1C[C@@H](c2c(Cl)cccc2Cl)CN(CC(F)(F)F)C1=O)c1ccc2c(c1)C[C@@]1(C2)C(=O)Nc2ncccc21` [Example 9] reads 0.24 nM; that for `C[C@@H]1[C@H](c2c(F)ccc(F)c2F)C[C@H](NC(=O)c2ccc3c(c2)C[C@@]2(C3)C(=O)Nc3ncccc32)C(=O)N1CC(F)(F)F` [Example 12], 0.025 nM; that for `O=C(N[C@H]1C[C@@H](c2cccc(F)c2F)CN(CC(F)(F)F)C1=O)c1ccc2c(c1)C[C@@]1(C2)C(=O)Nc2ncccc21` [Example 5], 0.061 nM.
For the molecule `NCCCC[C@H](NC(=O)[C@@H](Cc1cc(Br)c(O)c(Br)c1)NC(=O)N1CCC(N2Cc3ccccc3NC2=O)CC1)C(=O)N1CCN(c2ccncc2)CC1` [BIBN4096BS], in assay [2], the “prevention of headache induced by CGRP infusion” value is reported as “able to prevent headache induced by CGRP infusion”. Further, the “effectiveness in treating acute attacks of migraine” value in assay [3] is given as “effective in treating acute attacks of migraine”. In addition, the “effect on increase in facial blood flow” value in the assay with facial blood flow [4] is given as “blocked”.
With `C[C@@H]1[C@H](c2ccccc2)C[C@H](NC(=O)c2ccc3c(c2)C[C@@]2(C3)C(=O)Nc3ncc(C#N)cc32)C(=O)N1CC(F)(F)F` [Example 16], the Ki in assay [1] is 0.13 nM.
On the same count and under the same terms, the figure for `C[C@@H]1[C@H](c2ccccc2)C[C@H](NC(=O)c2ccc3c(c2)C[C@@]2(C3)C(=O)Nc3ncccc32)C(=O)N1CC(F)(F)F` [Example 1, (2R)-N-[(3S,5S,6R)-6-Methyl-2-oxo-5-phenyl-1-(2,2,2-trifluoroethyl)piperidin-3-yl]-2′-oxo-1,1′,2′,3-tetrahydrospiro[indene-2,3′-pyrrolo[2,3-b]pyridine]-5-carboxamide] is 0.079 nM; for `C[C@@H]1[C@H](c2c(F)c(F)cc(F)c2F)C[C@H](NC(=O)c2ccc3c(c2)C[C@@]2(C3)C(=O)Nc3ncncc32)C(=O)N1CC(F)(F)F` [Example 20] it is 0.021 nM.
For the molecule `O=C(N[C@@H]1CC[C@@H](c2cccc(F)c2F)CN(CC(F)(F)F)C1=O)N1CCC(n2c(=O)[nH]c3ncccc32)CC1` [telcagepant], the “effectiveness in treating acute attacks of migraine” value in assay [3] is “antimigraine effectiveness”.
For `O=C(N[C@H]1C[C@@H](c2cc(F)cc(F)c2)CN(CC(F)(F)F)C1=O)c1ccc2c(c1)C[C@@]1(C2)C(=O)Nc2ncccc21` [Example 4], the Ki in assay [1] is 0.18 nM.
Turning to “CGRP(8-37) (VTHRLAGLLSRSGGVVKNNFVPTNVGSKAF; ends and bridges not checked; UniProt P06881 90-119, looked up, fragment) [a peptide CGRP receptor antagonist]”, in the assay with facial blood flow [5], the “effect on increased facial blood flow” value is “inhibited”. For the same molecule, the “effect on increase in diameter of the middle meningeal artery” value in the assay on middle meningeal artery is recorded as “blocked”.
With `C[C@@H]1[C@H](c2cccc(Cl)c2)C[C@H](NC(=O)c2ccc3c(c2)C[C@@]2(C3)C(=O)Nc3ncccc32)C(=O)N1CC(F)(F)F` [Example 2, (2R)-N-[(3S,5S,6R)-5-(3-Chlorophenyl)-6-methyl-2-oxo-1-(2,2,2-trifluoroethyl)piperidin-3 yl]-2′-oxo-1,1′,2′,3-tetrahydrospiro[indene-2,3′-pyrrolo[2,3-b]pyridine]-5-carboxamide], the Ki in assay [1] came to 0.17 nM.
`CC(C)CN1C[C@H](c2cccc(F)c2F)C[C@H](NC(=O)c2ccc3c(c2)C[C@@]2(C3)C(=O)Nc3ncccc32)C1=O` [Example 14]: the Ki in assay [1] came to 0.032 nM.
